This note sets out measurements from ChEMBL document CHEMBL1152165, “Discovery of 1-benzoyl-3-cyanopyrrolo[1,2-a]quinolines as a new series of apoptosis inducers using a cell- and caspase-based high-throughput screening assay. Part 1: Structure-activity relationships of the 1- and 3-positions” (Bioorg Med Chem Lett, 2008).

One may read the pEC50 as the EC50 on a negative log10 scale, so that one unit is a factor of ten. Usually GI50 stands for the concentration that inhibits growth by half. A higher GI50 goes with lower sensitivity of the cells. The pIC50 is the negative decadic logarithm of the IC50, by convention in mol/L.

pEC50, pIC50: −log10 of the molar value. Calls of active or inactive are those of the source. No cut-off for these calls is given here.

In test [1] the test system is SNU-398. In words: Induction of apoptosis in human SNU398 cells assessed as caspase activation after 24 hrs. As to conditions: SNU-398, 24 h. In kind it is functional, cell-based.
Test [2] deals with T47D. The experiment in a line: Induction of apoptosis in human T47D cells assessed as caspase activation after 24 hrs. In kind it is functional, cell-based.
The subject of test [3] is HCT-116. In words: Induction of apoptosis in human HCT116 cells assessed as caspase activation after 24 hrs. Format: functional, cell-based. As to conditions: HCT-116, 24 h.
In the next test the test system is Raji. In words: Growth inhibition of human Raji cells. In kind it is functional.
The next test concerns ZR-75-1. The experiment in a line: Growth inhibition of human ZR-75-1 cells. Format: functional.
In a further test the test system is DLD-1. In words: Growth inhibition of human DLD1 cells. In kind it is functional.
Test [4] can be described thus: Growth inhibition of human NAMALWA cells. Format: functional. As to conditions: NAMALVA.
Another test has as its system HT-29. The experiment in a line: Growth inhibition of human HT-29 cells. Format: functional.
Test [5] deals with T47D. In words: Growth inhibition of human T47D cells. In kind it is functional.
The subject of test [6] is HCT-116. The experiment in a line: Cell cycle arrest in human HCT116 cells by accumulation at G2/M phase by flow cytometry. Format: functional, cell-based. On the technique in general: Flow cytometry measures light scatter and fluorescence of single cells or particles in a stream.
For another test, the system named is SK-BR-3. In words: Growth inhibition of human SKBR3 cells. In kind it is functional.
Test [7] is described as follows: Growth inhibition of human H1299 cells. In kind it is functional. As to conditions: NCI-H1299.
The test system of the next test is K562. In words: Growth inhibition of human K562 cells. Format: functional.
Test [8] in a line: Inhibition of tubulin polymerization up to 50 uM.
The test system of the next test is BT-474. The experiment in a line: Growth inhibition of human BT474 cells. In kind it is functional.
The test system of test [9] is SNU-398. In words: Growth inhibition of human SNU398 cells. Format: functional.
Test [10] concerns HCT-116. The experiment in a line: Growth inhibition of human HCT116 cells. Format: functional.
Test [11] in a line: Inhibition of tubulin polymerization.

As for `Cc1ccc(C(=O)c2cc(C#N)c3ccc4ccccc4n23)cc1`, the values for the pEC50 in the test on SNU-398 [1], with T47D [2] and in the test with HCT-116 [3] were 5.57, 6.03 and 5.38, respectively.

In the case of `N#Cc1cc(C(O)c2ccc(-n3cccn3)cc2)n2c1ccc1ccccc12` (stereo not drawn), the pEC50 in the test with SNU-398 [1] was 6.46; in the test on T47D [2], 6.80; with HCT-116 [3], 6.26.

For the compound `CCN(CC)c1ccc(C(=O)c2cc(C#N)c3ccc4ccccc4n23)cc1`, the figures for the negative-log EC50 (pEC50) with SNU-398 [1], with T47D [2] and in the test on HCT-116 [3] were 6.59, 7.00 and 6.43, respectively.

For the compound `N#Cc1cc(C(O)c2ccc(N3CCCC3)cc2)n2c1ccc1ccccc12` (stereo not drawn), the negative-log EC50 (pEC50) was 6.52 in the test on SNU-398 [1], 6.68 in the test on T47D [2] and 6.49 in the test on HCT-116 [3].

With `N#Cc1cc(C(=O)c2ccccc2)n2c1ccc1ccccc12`, the GI50 with Raji is 1.2 µM; with ZR-75-1, 0.07 µM; in the test with DLD-1, 1.2 µM; in test [4], 1.2 µM; in the test with HT-29 it was 1.2 µM; in the test on T47D [5], 0.07 µM. The GI50 was found to be 0.07 µM in the test with SK-BR-3; 1.2 µM in test [7]; 1.2 µM in the test with K562; 0.07 µM in the test on BT-474; 2 µM in the test with SNU-398 [9]; 5.8 µM with HCT-116 [10]. Besides, the negative-log EC50 (pEC50) is 5.28 with SNU-398 [1], 7.11 with T47D [2] and 5.26 in the test with HCT-116 [3]. In addition, the outcome in the test on HCT-116 [6] was Active. Also, the outcome in [8] was inactive.

As to `CC(=O)c1cc(C(=O)c2ccc(C)cc2)n2c1ccc1ccccc12`, the pEC50 with SNU-398 [1], in the test with T47D [2] and in the test with HCT-116 [3] was less than 5.00 throughout.

For the compound `N#Cc1cc(C(=O)c2ccc(N3CCCC3)cc2)n2c1ccc1ccccc12`, the results for the negative-log EC50 (pEC50) in the test with SNU-398 [1], with T47D [2] and in the test on HCT-116 [3] were 6.29, 6.52 and 6.24, respectively. The GI50 is 0.075 µM with T47D [5], 0.14 µM in the test with SNU-398 [9] and 0.25 µM with HCT-116 [10].

Regarding `N#Cc1cc(C(=O)c2ccc(Cl)cc2)n2c1ccc1ccccc12`, the pEC50 was less than 5.00 in the test with SNU-398 [1], 7.31 in the test with T47D [2] and less than 5.00 in the test with HCT-116 [3].

For `COc1ccc(C(O)c2cc(C#N)c3ccc4ccccc4n23)cc1` (stereo not drawn), the pEC50 with SNU-398 [1] was 6.85; in the test with T47D [2] it was 6.66; with HCT-116 [3], 6.62.

In the case of `Cc1ccccc1C(=O)c1cc(C#N)c2ccc3ccccc3n12`, the results for the pEC50 in the test on SNU-398 [1], in the test on T47D [2] and with HCT-116 [3] were 5.57, 6.85 and 5.60, respectively. Also, the results for the 50% growth inhibitory concentration (GI50) in the test with T47D [5], with SNU-398 [9] and in the test on HCT-116 [10] were 0.087 µM, 0.73 µM and 1.6 µM, respectively.

As to `COc1cccc(C(=O)c2cc(C#N)c3ccc4ccccc4n23)c1`, the pEC50 is 5.80 in the test on SNU-398 [1], 6.77 in the test with T47D [2] and 5.77 in the test with HCT-116 [3].

Regarding `N#Cc1cc(C(=O)c2ccc(F)cc2)n2c1ccc1ccccc12`, the pEC50 is 6.06 in the test with SNU-398 [1], 7.44 in the test with T47D [2] and 5.92 with HCT-116 [3].

With `CCOC(=O)c1cc(C(=O)c2cccc(OC)c2)n2c1ccc1ccccc12`, the pEC50 in the test with SNU-398 [1], in the test on T47D [2] and in the test on HCT-116 [3] was less than 5.00 throughout.

Take `N#Cc1cc(C(=O)c2ccc(-n3ccnc3)cc2)n2c1ccc1ccccc12`: the pEC50 in the test with SNU-398 [1] was 7.41; in the test on T47D [2], 7.47; in the test on HCT-116 [3] it was 7.13. The same compound showed a pIC50 in [11] of 5.30. For the same compound, the figures for the GI50 in the test on T47D [5], in the test on SNU-398 [9] and with HCT-116 [10] were 0.041 µM, 0.059 µM and 0.065 µM, respectively. Besides, the result in the test on HCT-116 [6] was Active.

Regarding `COc1ccc(C(=O)c2cc(C#N)c3ccc4ccccc4n23)cc1`, the figures for the pEC50 in the test on SNU-398 [1], with T47D [2] and in the test on HCT-116 [3] were 6.74, 6.55 and 6.55, respectively. Besides, the GI50 is 0.071 µM in the test on T47D [5], 0.12 µM with SNU-398 [9] and 0.49 µM in the test on HCT-116 [10].

On to `N#Cc1cc(C(=O)c2ccccn2)n2c1ccc1ccccc12`, for which the results for the pEC50 in the test with SNU-398 [1], in the test on T47D [2] and in the test with HCT-116 [3] were 5.80, 7.40 and 5.72, respectively.

Turning to `N#Cc1cc(C(=O)c2ccc([N+](=O)[O-])cc2)n2c1ccc1ccccc12`, the pEC50 is less than 5.00 with SNU-398 [1], 5.55 in the test on T47D [2] and less than 5.00 in the test on HCT-116 [3].

As to `N#Cc1cc(C(=O)c2ccc(N)cc2)n2c1ccc1ccccc12`, the pEC50 is 6.70 in the test on SNU-398 [1], 6.77 in the test with T47D [2] and 6.62 in the test with HCT-116 [3]. For the same compound, the GI50 was 0.47 µM with T47D [5], 0.42 µM in the test on SNU-398 [9] and 1.2 µM in the test with HCT-116 [10].

On to `N#Cc1cc(C(=O)c2ccc(N3CCNCC3)cc2)n2c1ccc1ccccc12`, for which the pEC50 in the test with SNU-398 [1], in the test on T47D [2] and with HCT-116 [3] was less than 5.00 throughout.

As to `N#Cc1cc(C(=O)c2ccc(-n3cccn3)cc2)n2c1ccc1ccccc12`, the pEC50 with SNU-398 [1] is 7.24; in the test with T47D [2], 7.39; in the test with HCT-116 [3], 7.02. Further, the negative-log IC50 (pIC50) in [11] is 6.00. The 50% growth inhibitory concentration (GI50) in the test on T47D [5] came out at 0.072 µM; in the test on SNU-398 [9], 0.036 µM; in the test with HCT-116 [10], 0.24 µM.

Turning to `N#Cc1cc(C(=O)c2cccnc2)n2c1ccc1ccccc12`, the negative logarithm of the EC50 (pEC50) in the test on SNU-398 [1] was 5.59; with T47D [2] it was 6.16; with HCT-116 [3] it was 5.43.
